According to publication PMC3063124 (The Journal of neuroscience : the official journal of the …, 2011):
Values joined by “and” are separate entries in the source; they are usually repeats but may differ in a detail not shown here. Equal values may be shown once. Read-outs that look alike come from different tables or passages of the source. Marks after values point to notes of the source that are not given here.

Assays:
[1] = target: GluN1/GluN2C (Rattus norvegicus, UniProt Q00961); format: cell-based
[2] = target: GluN1/GluN2D L705F (Rattus norvegicus, UniProt Q62645, L705F); experiment: Two-electrode voltage-clamp recordings, mutant receptor in Xenopus oocytes; format: cell-based
[3] = target: GluN1/GluN2D L705F (Rattus norvegicus, UniProt P35439+Q62645, L705F); experiment: as above; format: cell-based
[4] = target: GluN1/GluN2D M726A (Rattus norvegicus, UniProt Q62645, M726A); experiment: as above; format: cell-based
[5] = target: GluN1/GluN2D M726A (Rattus norvegicus, UniProt P35439+Q62645, M726A); experiment: as above; format: cell-based
[6] = extracellular oocyte recording solution; ref Mosley et al., 2010; cited from earlier work
[7] = target: GluN1/GluN2D K779Y (Rattus norvegicus, UniProt Q62645, K779Y); experiment: Two-electrode voltage-clamp recordings, mutant receptor in Xenopus oocytes; format: cell-based
[8] = target: GluN1/GluN2D K779Y (Rattus norvegicus, UniProt P35439+Q62645, K779Y); experiment: as above; format: cell-based
[9] = target: GluN1/GluN2D Y723A (Rattus norvegicus, UniProt P35439+Q62645, Y723A); experiment: as above; format: cell-based
[10] = target: GluN1/GluN2D Y723A (Rattus norvegicus, UniProt Q62645, Y723A); experiment: as above; format: cell-based
[11] = target: GluN1/2A-(2D S2) chimera (Rattus norvegicus, UniProt Q00959+Q62645); experiment: Two-electrode voltage-clamp recordings, chimeric receptor in Xenopus oocytes; format: cell-based
[12] = target: T1, GluN1/GluN2D (Rattus norvegicus, UniProt Q62645); format: cell-based
[13] = target: GluN1/2A-(2D S1) chimera (Rattus norvegicus, UniProt Q00959+Q62645); experiment: Two-electrode voltage-clamp recordings, chimeric receptor in Xenopus oocytes; format: cell-based
[14] = target: GluN1/GluN2A HDYS/QEQY + F680L + Y754K (Rattus norvegicus, UniProt P35439+Q00959, D675E/F680L/H674Q/S677Y/Y676Q/Y754K); experiment: Two-electrode voltage-clamp recordings, mutant receptor in Xenopus oocytes; format: cell-based
[15] = target: GluN1/GluN2A HDYS/QEQY + F680L + Y754K (Rattus norvegicus, UniProt Q00959, D675E/F680L/H674Q/S677Y/Y676Q/Y754K); experiment: as above; format: cell-based
[16] = target: GluN1/GluN2D QEQY/HDYS + L705F + K779Y (Rattus norvegicus, UniProt P35439+Q62645, E700D/K779Y/L705F/Q699H/Q701Y/Y702S); experiment: as above; format: cell-based
[17] = target: GluN1/GluN2D QEQY/HDYS + L705F + K779Y (Rattus norvegicus, UniProt Q62645, E700D/K779Y/L705F/Q699H/Q701Y/Y702S); experiment: as above; format: cell-based
[18] = target: GluN1/GluN2D Q701Y (Rattus norvegicus, UniProt P35439+Q62645, Q701Y); experiment: as above; format: cell-based
[19] = target: GluN1/GluN2D Q701Y (Rattus norvegicus, UniProt Q62645, Q701Y); experiment: as above; format: cell-based
[20] = target: GluN1/2A-(2D S1+S2) chimera (Rattus norvegicus, UniProt Q00959+Q62645); experiment: Two-electrode voltage-clamp recordings, chimeric receptor in Xenopus oocytes; format: cell-based
[21] = target: GluN1/GluN2D Y729A (Rattus norvegicus, UniProt Q62645, Y729A); experiment: Two-electrode voltage-clamp recordings, mutant receptor in Xenopus oocytes; format: cell-based
[22] = target: GluN1/GluN2D Y729A (Rattus norvegicus, UniProt P35439+Q62645, Y729A); experiment: as above; format: cell-based
[23] = target: GluN1/GluN2D QEQY/HDYS (Rattus norvegicus, UniProt P35439+Q62645, E700D/Q699H/Q701Y/Y702S); experiment: as above; format: cell-based
[24] = target: GluN1/GluN2D QEQY/HDYS (Rattus norvegicus, UniProt Q62645, E700D/Q699H/Q701Y/Y702S); experiment: as above; format: cell-based
[25] = target: GluN1/GluN2A (Rattus norvegicus, UniProt Q00959); format: cell-based
[26] = target: GluN1/GluN2D A752V (Rattus norvegicus, UniProt Q62645, A752V); experiment: Two-electrode voltage-clamp recordings, mutant receptor in Xenopus oocytes; format: cell-based
[27] = target: GluN1/GluN2D A752V (Rattus norvegicus, UniProt P35439+Q62645, A752V); experiment: as above; format: cell-based
[28] = target: T1, GluN1/GluN2D; format: cell-based; remark: listed apart in the source
[29] = target: GluN1/GluN2D (Rattus norvegicus, UniProt P35439+Q62645); format: cell-based
[30] = target: GluN1/GluN2B (Rattus norvegicus, UniProt Q00960); format: cell-based
[31] = fold shift relative to GluN1/GluN2D
[32] = fixed during fitting to the Hill equation
[33] = 1 μM QNZ46 plus glycine continuously present, after removal of glutamate
[34] = 3 μM QNZ46 plus glycine continuously present, after removal of glutamate

Sequence of GluN1/GluN2C (Q00961 20-1237, other chains not shown): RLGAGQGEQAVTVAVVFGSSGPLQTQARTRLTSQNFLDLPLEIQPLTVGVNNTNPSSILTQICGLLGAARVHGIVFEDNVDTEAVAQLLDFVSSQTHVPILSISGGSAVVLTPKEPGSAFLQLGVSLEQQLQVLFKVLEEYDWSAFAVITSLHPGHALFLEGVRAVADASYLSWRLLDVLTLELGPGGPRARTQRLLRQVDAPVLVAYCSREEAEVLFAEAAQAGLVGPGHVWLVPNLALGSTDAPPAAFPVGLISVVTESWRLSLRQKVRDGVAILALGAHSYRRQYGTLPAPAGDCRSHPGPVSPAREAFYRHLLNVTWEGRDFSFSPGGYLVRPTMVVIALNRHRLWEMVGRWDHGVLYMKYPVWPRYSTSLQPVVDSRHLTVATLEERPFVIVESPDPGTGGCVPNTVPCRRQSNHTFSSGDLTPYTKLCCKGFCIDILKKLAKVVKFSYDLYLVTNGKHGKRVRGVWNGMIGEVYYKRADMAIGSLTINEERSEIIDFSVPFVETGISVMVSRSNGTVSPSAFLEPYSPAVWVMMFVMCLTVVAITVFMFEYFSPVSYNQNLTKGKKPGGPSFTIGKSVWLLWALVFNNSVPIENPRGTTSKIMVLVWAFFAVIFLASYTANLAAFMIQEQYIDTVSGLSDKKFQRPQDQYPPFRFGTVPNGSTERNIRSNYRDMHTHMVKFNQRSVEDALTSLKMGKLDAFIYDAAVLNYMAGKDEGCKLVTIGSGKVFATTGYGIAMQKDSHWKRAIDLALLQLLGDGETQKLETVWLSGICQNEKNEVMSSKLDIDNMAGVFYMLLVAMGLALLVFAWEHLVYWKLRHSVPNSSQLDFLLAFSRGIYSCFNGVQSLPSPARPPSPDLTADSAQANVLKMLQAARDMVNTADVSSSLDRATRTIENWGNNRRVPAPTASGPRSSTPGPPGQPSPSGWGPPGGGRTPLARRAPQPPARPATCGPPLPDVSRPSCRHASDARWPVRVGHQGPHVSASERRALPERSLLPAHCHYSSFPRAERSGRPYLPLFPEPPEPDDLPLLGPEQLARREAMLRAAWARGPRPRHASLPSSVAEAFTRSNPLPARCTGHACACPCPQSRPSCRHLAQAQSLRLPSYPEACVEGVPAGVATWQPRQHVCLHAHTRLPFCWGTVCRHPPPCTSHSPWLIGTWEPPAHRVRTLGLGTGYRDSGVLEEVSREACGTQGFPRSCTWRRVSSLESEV
Sequence of GluN1/GluN2B (Q00960 27-1482, other chains not shown): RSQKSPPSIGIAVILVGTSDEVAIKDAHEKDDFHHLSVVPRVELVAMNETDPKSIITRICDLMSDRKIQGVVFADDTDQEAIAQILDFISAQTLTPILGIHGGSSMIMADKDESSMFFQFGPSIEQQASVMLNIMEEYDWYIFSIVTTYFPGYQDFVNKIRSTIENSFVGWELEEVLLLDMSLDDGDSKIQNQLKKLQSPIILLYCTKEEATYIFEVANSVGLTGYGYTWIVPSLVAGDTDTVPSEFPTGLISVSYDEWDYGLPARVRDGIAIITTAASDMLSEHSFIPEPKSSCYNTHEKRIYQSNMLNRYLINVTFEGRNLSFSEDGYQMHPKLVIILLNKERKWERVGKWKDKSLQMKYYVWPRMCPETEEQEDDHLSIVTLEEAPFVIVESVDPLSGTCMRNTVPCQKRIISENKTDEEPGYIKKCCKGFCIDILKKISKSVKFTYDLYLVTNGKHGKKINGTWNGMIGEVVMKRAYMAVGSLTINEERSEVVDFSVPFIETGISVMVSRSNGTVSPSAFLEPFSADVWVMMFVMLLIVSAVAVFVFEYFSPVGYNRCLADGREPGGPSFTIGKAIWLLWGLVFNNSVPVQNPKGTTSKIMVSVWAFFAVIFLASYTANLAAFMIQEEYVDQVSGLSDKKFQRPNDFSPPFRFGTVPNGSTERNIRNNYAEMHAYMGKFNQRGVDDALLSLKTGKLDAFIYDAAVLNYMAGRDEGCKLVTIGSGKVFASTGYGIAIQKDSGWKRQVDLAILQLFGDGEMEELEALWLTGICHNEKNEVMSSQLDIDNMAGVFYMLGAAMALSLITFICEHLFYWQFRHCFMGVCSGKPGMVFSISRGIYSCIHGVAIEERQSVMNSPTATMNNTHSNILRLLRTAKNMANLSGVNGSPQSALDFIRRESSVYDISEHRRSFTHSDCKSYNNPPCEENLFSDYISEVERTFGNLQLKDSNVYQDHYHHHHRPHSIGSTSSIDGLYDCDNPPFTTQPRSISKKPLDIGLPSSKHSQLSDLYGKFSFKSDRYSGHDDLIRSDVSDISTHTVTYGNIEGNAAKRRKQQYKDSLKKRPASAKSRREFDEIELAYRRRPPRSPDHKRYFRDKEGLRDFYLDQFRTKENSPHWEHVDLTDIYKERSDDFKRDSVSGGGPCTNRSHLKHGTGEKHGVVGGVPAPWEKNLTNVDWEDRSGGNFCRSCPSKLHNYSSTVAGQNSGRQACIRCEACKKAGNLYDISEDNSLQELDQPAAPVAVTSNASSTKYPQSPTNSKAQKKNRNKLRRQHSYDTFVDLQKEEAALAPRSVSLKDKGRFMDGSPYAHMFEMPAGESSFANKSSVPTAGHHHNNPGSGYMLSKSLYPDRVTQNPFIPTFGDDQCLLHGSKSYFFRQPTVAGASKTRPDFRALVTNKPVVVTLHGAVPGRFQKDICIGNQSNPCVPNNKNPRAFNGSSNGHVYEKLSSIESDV

COc1ccc2nc(/C=C/c3cccc([N+](=O)[O-])c3)n(-c3ccc(C(=O)O)cc3)c(=O)c2c1 [QNZ46, (E)-4-(6-methoxy-2-(3-nitrostyryl)-4-oxoquinazolin-3(4H)-yl)-benzoic acid]
nH (Hill slope) [1]: 1.0
Relative IC50 (IC50 2X / IC50 2D) [1, 31]: 1.8
nH (Hill slope) [2]: 1.1
Relative IC50 (IC50 2X / IC50 2D) ([2]; fold shift relative to GluN2D): 5.9
IC50 [3]: 23 ± 2 µM
nH (Hill slope) [4]: 1.1
Relative IC50 (IC50 2X / IC50 2D) ([4]; fold shift relative to GluN2D): 0.1
IC50 [5]: 500 ± 20 nM
maximum solubility [6]: 70 µM
nH (Hill slope) [7]: 1.2
Relative IC50 (IC50 2X / IC50 2D) ([7]; fold shift relative to GluN2D): 4.9
IC50 [8]: 19 ± 2 µM
IC50 [9]: 7.6 ± 0.6 µM
nH (Hill slope) [10]: 1.3
Relative IC50 (IC50 2X / IC50 2D) ([10]; fold shift relative to GluN2D): 1.9
nH (Hill slope) [11]: 1.1
Relative IC50 (IC50 2X / IC50 2D) ([11]; fold shift relative to GluN2D): 1.2
nH (Hill slope) [12]: 1.1
selectivity for GluN2C- and GluN2D-containing receptors over receptors containing GluN2A or GluN2B [12]: ~ 50 fold
Relative IC50 (IC50 2X / IC50 2D) [12, 31]: 1.0
difference in QNZ46 IC50 values between GluN2A- and GluN2D-containing receptors ([12]; rat, xenopus oocytes): ~ 50 fold and 50 fold
nH (Hill slope) [13, 32]: 1.0 ^a
Relative IC50 (IC50 2X / IC50 2D) ([13]; fold shift relative to GluN2D): 23
IC50 [14]: 17 ± 1 µM
nH (Hill slope) [15]: 1.2
Relative IC50 (IC50 2X / IC50 2D) ([15]; fold shift relative to GluN2D): 4.4
IC50 [16]: 15 ± 1 µM
nH (Hill slope) [17]: 1.0
Relative IC50 (IC50 2X / IC50 2D) ([17]; fold shift relative to GluN2D): 3.8
IC50 [18]: 7.7 ± 0.7 µM
nH (Hill slope) [19]: 1.0
Relative IC50 (IC50 2X / IC50 2D) ([19]; fold shift relative to GluN2D): 2.0
nH (Hill slope) [20]: 1.1
Relative IC50 (IC50 2X / IC50 2D) ([20]; fold shift relative to GluN2D): 1.2
nH (Hill slope) [21]: 1.0
Relative IC50 (IC50 2X / IC50 2D) ([21]; fold shift relative to GluN2D): 0.2
IC50 [22]: 700 ± 40 nM
IC50 [23]: 10 ± 1 µM
nH (Hill slope) [24]: 1.0
Relative IC50 (IC50 2X / IC50 2D) ([24]; fold shift relative to GluN2D): 2.6
nH (Hill slope) [25, 32]: 1.0 ^a
Relative IC50 (IC50 2X / IC50 2D) [25, 31]: 47
nH (Hill slope) [26]: 1.0
Relative IC50 (IC50 2X / IC50 2D) ([26]; fold shift relative to GluN2D): 4.1
IC50 [27]: 16 ± 1 µM
τinhibition ([28]; 1 μM QNZ46 applied after activation): 356 ± 6 ms
Deactivation % slow ([28]; 1 μM QNZ46 plus glycine continuously present): 78%
Deactivation τfast [28, 33]: 1210 ± 150 ms
Deactivation τslow [28, 33]: 5640 ± 160 ms
τinhibition ([28]; 1 μM QNZ46 present before, during, and after activation): 344 ± 6 ms
τinhibition ([28]; 3 μM QNZ46 applied after activation): 268 ± 11 ms
Deactivation % slow ([28]; 3 μM QNZ46 plus glycine continuously present): 79%
Deactivation τfast [28, 34]: 1340 ± 50 ms
Deactivation τslow [28, 34]: 7100 ± 180 ms
τinhibition ([28]; 3 μM QNZ46 present before, during, and after activation): 244 ± 5 ms
voltage-dependence of inhibition ([28]; 10 μM QNZ46, 1000 μM glutamate plus 100 μM glycine): independent of membrane holding potential
τinhibition ([28]; 10 μM QNZ46 applied after activation): 145 ± 13 ms
Deactivation % slow ([28]; 10 μM QNZ46 plus glycine continuously present): 100%
Deactivation τslow ([28]; 10 μM QNZ46 plus glycine continuously present, mono-exponential fit): 8150 ± 330 ms
τinhibition ([28]; 10 μM QNZ46 present before, during, and after activation): 116 ± 3 ms
τinhibition ([28]; 20 μM QNZ46 applied after activation): 91 ± 11 ms
Deactivation % slow ([28]; 20 μM QNZ46 plus glycine continuously present): 100%
Deactivation τslow ([28]; 20 μM QNZ46 plus glycine continuously present, mono-exponential fit): 10130 ± 280 ms
τinhibition ([28]; 20 μM QNZ46 present before, during, and after activation): 74 ± 2 ms
increase in QNZ46 potency by glutamate binding to GluN2D ([28]; IC50 with glutamate vs glycine alone or no agonists): > 10 fold
τoff for QNZ46 ([28]; continuous presence of glutamate): 460 ms
dependence of inhibition on agonist concentration ([28]; increasing concentrations of glutamate or glycine): independent of agonist concentration
increase of time constants for deactivation (τweighted) in the presence of QNZ46 ([28]; up to, QNZ46 1 – 20 μM, after removal of glutamate): ~ 2 fold
Kd [29]: 4.9 µM
inhibition at 1 µM ([29]; HEK293, read-out: % inhibition of steady-state responses, 1 μM QNZ46 applied after activation): 23 ± 1%
inhibition at 1 µM ([29]; HEK293, read-out: % inhibition of steady-state responses, 1 μM QNZ46 present before, during, and after activation): 28 ± 3%
inhibition at 3 µM ([29]; HEK293, read-out: % inhibition of steady-state responses, 3 μM QNZ46 applied after activation): 50 ± 2%
inhibition at 3 µM ([29]; HEK293, read-out: % inhibition of steady-state responses, 3 μM QNZ46 present before, during, and after activation): 46 ± 3%
inhibition at 10 µM ([29]; HEK293, read-out: % inhibition of steady-state responses, 10 μM QNZ46 applied after activation): 75 ± 1%
inhibition at 10 µM ([29]; HEK293, read-out: % inhibition of steady-state responses, 10 μM QNZ46 present before, during, and after activation): 73 ± 2%
inhibition at 20 µM ([29]; HEK293, read-out: % inhibition of steady-state responses, 20 μM QNZ46 applied after activation): 88 ± 1%
inhibition at 20 µM ([29]; HEK293, read-out: % inhibition of steady-state responses, 20 μM QNZ46 present before, during, and after activation): 85 ± 2%
inhibition at 10 µM ([29]; HEK293, read-out: inhibition of the instantaneous current (pre-inhibition), 10 μM QNZ46 alone, nominal absence of glutamate plus glycine): ~11%
nH (Hill slope) [30, 32]: 1.0 ^a
Relative IC50 (IC50 2X / IC50 2D) [30, 31]: 49
